± gives the standard deviation of the averaged measurements.

The series is described as follows: TIMS collisional cross section (CCS, N2) of the lipid ion; higher = larger ion cross section. To be noted: ionization mode: positive, one isomer drawn.

With `CCCCCCCCCCCCCCCC(=O)OC[C@@H](COC(=O)CCCCCCCCCCC)OC(=O)CCCCCCCCCCC` [TG 12:0_12:0_16:0] (ion (formula + adduct): [C43H82O6+NH4] 1+), the “TIMS collisional cross section” value (sample type: HeLa) was determined as 288 Å².

In the case of `CCCCC/C=C\C/C=C\C/C=C\C/C=C\C/C=C\CCC(=O)O[C@H](COC(=O)CCCCCCCCCCCCCCC)COP(=O)([O-])OCC[N+](C)(C)C` [PC 16:0_22:5@] (ion (formula + adduct): [C46H82NO8P+H] 1+), the “TIMS collisional cross section” value (sample type: Liver) is reported as 292.7 Å².

For the compound `CCCCCCC/C=C\CCCCCCCC(=O)O[C@H](COC(=O)CCCCCCCCCCCCCCC)COP(=O)([O-])OCC[N+](C)(C)C` [PC 16:0_17:1] (ion (formula + adduct): [C41H80NO8P+H] 1+), the “TIMS collisional cross section” value (sample type: HeLa) is recorded as 285.8 Å².

In the case of `CCCCC/C=C\C/C=C\CCCCCCCC(=O)O[C@H](COC(=O)CCCCCCC/C=C\CCCCCC)COP(=O)([O-])OCC[N+](C)(C)C` [PC 16:1_18:2] (ion (formula + adduct): [C42H78NO8P+H] 1+), the “TIMS collisional cross section” value runs as follows: (sample type: HeLa) 282.6 Å²; (sample type: Liver) 282.8 Å²; (sample type: plasma) 282.6 Å².

`CCCCC/C=C\C/C=C\C/C=C\C/C=C\CCCC(=O)O[C@H](COC(=O)CCCCCCCCCCCCC)COP(=O)([O-])OCC[N+](C)(C)C` [PC 14:0@_20:4] (ion (formula + adduct): [C42H76NO8P+H] 1+): the “TIMS collisional cross section” value (sample type: plasma) worked out at 282 Å².

For `CCCCCC/C=C\CCCCCCCC(=O)OC[C@H](COP(=O)(O)OCCN)OC(=O)CCCCCCCCCCCCC` [PE 16:1_14:0] (ion (formula + adduct): [C35H68NO8P+H] 1+), the “TIMS collisional cross section” value (sample type: HeLa) is recorded as 262 Å².

Consider `CCCCCCCC/C=C\CCCCCCCC(=O)OC[C@H](COC(=O)CCCCCCCCCCCCCCCCCCCC)OC(=O)CCCCCCCCCCCCCCCCCCC` [TG 18:1_20:0_21:0] (ion (formula + adduct): [C62H118O6+NH4] 1+), for which the “TIMS collisional cross section” value (sample type: HeLa) is listed as 344.2 Å².

`CCCCC/C=C\C/C=C\CCCCCCCC(=O)O[C@@H](CO)COC(=O)CCCCCCC/C=C\CCCCCC` [DG 16:1_18:2_0:0] (ion (formula + adduct): [C37H66O5+NH4] 1+): the “TIMS collisional cross section” value (sample type: Liver) was found to be 253.1 Å² and the “TIMS collisional cross section” value (sample type: plasma) turned out to be 253.8 Å².

With `CCCCC/C=C\C/C=C\C/C=C\C/C=C\CCCC(=O)O[C@@H](CO)COC(=O)CCCCCCC/C=C\C/C=C\CCCCC` [DG 18:2_20:4_0:0] (ion (formula + adduct): [C41H68O5+NH4] 1+), the “TIMS collisional cross section” value amounted to 261.1 Å² (sample type: Liver) and 261.6 Å² (sample type: plasma).

Take `CCCCC/C=C\C/C=C\C/C=C\CCCCC(=O)O[C@H](COC(=O)CCCCCCC/C=C\C/C=C\CCCCC)COP(=O)([O-])OCC[N+](C)(C)C` [PC 18:2@_18:3] (ion (formula + adduct): [C44H78NO8P+H] 1+): where the note is “sample type: Liver”, the “TIMS collisional cross section” value is 284.9 Å².

As for `CC(C)CC[C@@H](O)[C@](C)(O)[C@H]1CC[C@@]2(O)C3=CC(=O)[C@@H]4C[C@@H](O)[C@@H](O)C[C@]4(C)[C@H]3CC[C@]12C` [ponasterone A] (ion (formula + adduct): [C27H44O6+H] 1+), the “TIMS collisional cross section” value (sample type: plasma) is 219 Å².

Take `CCCCCCCCCCCCCCC(=O)O[C@H](COC(=O)CCCCCCCCCCCCC)COP(=O)([O-])OCC[N+](C)(C)C` [PC 14:0@_15:0] (ion (formula + adduct): [C37H74NO8P+H] 1+): the “TIMS collisional cross section” value (sample type: HeLa) amounted to 276.1 Å².

As to `CCCCCCCCCCCCCC/C=C\OC[C@H](COP(=O)(O)OCCN)OC(=O)CCCCCCCCCCCCCCC` [PE P- 16:0_16:0] (ion (formula + adduct): [C37H74NO7P+H] 1+), the “TIMS collisional cross section” value (sample type: HeLa) was 272 Å².

For `CCCCCC/C=C\CCCCCCCC(=O)OC[C@@H](COC(=O)CCCCCCCCCCC)OC(=O)CCCCCCCCCCCCCCC` [TG 12:0_16:0_16:1] (ion (formula + adduct): [C47H88O6+NH4] 1+), for the setting “sample type: Liver”, the “TIMS collisional cross section” value amounted to 299.2 Å².

`CCCCC/C=C\C/C=C\C/C=C\C/C=C\CCCCCC(=O)O[C@H](CO/C=C\CCCCCCCCCCCCCCCC)COP(=O)([O-])OCC[N+](C)(C)C` [PC P- 18:0@_22:4] (ion (formula + adduct): [C48H88NO7P+H] 1+): where the note is “sample type: Liver”, the “TIMS collisional cross section” value came to 300.4 Å².

For `CCCC/C=C\CCCCCCCC(=O)OC[C@@H](COC(=O)CCCCCCCCCCC)OC(=O)CCCCCCCCCCC` [TG 12:0_12:0_14:1] (ion (formula + adduct): [C41H76O6+NH4] 1+), the “TIMS collisional cross section” value (sample type: plasma) is on record as 278.9 Å².

With `CCCCCCCC/C=C\CCCCCCCCCC(=O)OC[C@@H](O)COP(=O)(O)OCCN` [LPE 20:1] (ion (formula + adduct): [C25H50NO7P+H] 1+), the “TIMS collisional cross section” value is on record as 223.5 Å² (sample type: Liver) and 223.3 Å² (sample type: plasma).

As to `CC/C=C\C/C=C\C/C=C\C/C=C\C/C=C\C/C=C\CCC(=O)O[C@H](CO/C=C\CCCCCCCCCCCCCCCC)COP(=O)([O-])OCC[N+](C)(C)C` [PC P- 18:0@_22:6] (ion (formula + adduct): [C48H84NO7P+H] 1+), the “TIMS collisional cross section” value (sample type: HeLa) amounted to 297.1 ± 0.71 Å².

Consider `CCCCCCCC/C=C\CCCCCCCCCCCC(=O)OC[C@@H](COC(=O)CCCCCCC/C=C\CCCCCCCC)OC(=O)CCCCCCC/C=C\CCCCCCCC` [TG 18:1_18:1_22:1] (ion (formula + adduct): [C61H112O6+NH4] 1+), for which the “TIMS collisional cross section” value (sample type: HeLa) is given as 337.8 Å².

As to `CC/C=C\C/C=C\C/C=C\C/C=C\CCCCCCC(=O)O[C@H](COCCCCCCCC/C=C\CCCCCC)COP(=O)([O-])OCC[N+](C)(C)C` [PC O- 16:1@_20:4] (ion (formula + adduct): [C44H80NO7P+H] 1+), under “sample type: plasma”, the “TIMS collisional cross section” value was 287.2 Å².

`CCCCCC/C=C\CCCCCCCC(=O)O[C@H](CO/C=C\CCCCCCCCCCCCCCCC)COP(=O)([O-])OCC[N+](C)(C)C` [PC P- 18:0@_16:1] (ion (formula + adduct): [C42H82NO7P+H] 1+): the “TIMS collisional cross section” value (sample type: HeLa) is given as 288.6 Å².

As for `CCCCC/C=C\C/C=C\C/C=C\C/C=C\CCCC(=O)OC[C@@H](O)COP(=O)([O-])OCC[N+](C)(C)C` [LPC 20:4] (ion (formula + adduct): [C28H50NO7P+H] 1+), the “TIMS collisional cross section” value was determined as 230 Å² (sample type: Liver) and 231.65 ± 3.2 Å² (sample type: plasma).

As for `CCCCCCCCCCCCCCCCCCCC(=O)OC[C@@H](COC(=O)CCCCCCCCCCCCC)OC(=O)CCCCCCCCCCCCCCCCC` [TG 14:0_18:0_20:0] (ion (formula + adduct): [C55H106O6+NH4] 1+), the “TIMS collisional cross section” value (sample type: HeLa) stood at 326.4 Å² and the “TIMS collisional cross section” value (sample type: plasma) came to 326.1 Å².

Consider `CCCCC/C=C\C/C=C\C/C=C\C/C=C\CCCC(=O)OC[C@@H](COC(=O)CCCCCCC/C=C\CCCCCCCC)OC(=O)CCCCCCC/C=C\C/C=C\CCCCC` [TG 18:1_18:2_20:4] (ion (formula + adduct): [C59H100O6+NH4] 1+), for which the “TIMS collisional cross section” value (sample type: Liver) is listed as 325.7 Å².

For `CCCCCCCCCCCCC/C=C/[C@@H](O)[C@H](CO)NC(=O)CCCCCCCCCCCCCCCCCCCCCCCC` [Cer d18:1_25:0@] (ion (formula + adduct): [C43H85NO3+H] 1+), the “TIMS collisional cross section” value (sample type: Liver) stood at 284.1 Å².

With `CCCCC/C=C\C/C=C\CCCCCCCC(=O)O[C@H](COC(=O)CCCCCCC/C=C\CCCCCCC)COP(=O)([O-])OCC[N+](C)(C)C` [PC 17:1_18:2] (ion (formula + adduct): [C43H80NO8P+H] 1+), the “TIMS collisional cross section” value (sample type: Liver) was determined as 285.6 Å².

Consider `CCCCCCCC/C=C\CCCCCCCC(=O)OC[C@@H](COC(=O)CCCCCCCCCCCCCCCCC)OC(=O)CCCCCCC/C=C\CCCCCCCC` [TG 18:0_18:1_18:1] (ion (formula + adduct): [C57H106O6+NH4] 1+), for which the “TIMS collisional cross section” value (sample type: plasma) came out at 328.45 ± 0.49 Å².

In the case of `CCCCC/C=C\C=C\CCCCCCCCC(=O)O[C@H](COC(=O)CCCCCCCCCCCCCCC)COP(=O)([O-])OCC[N+](C)(C)C` [PC 16:0@_18:2] (ion (formula + adduct): [C42H80NO8P+H] 1+), the “TIMS collisional cross section” value runs as follows: (sample type: Liver) 283.5 Å²; (sample type: plasma) 284.9 Å².

`CC/C=C\C/C=C\C/C=C\C/C=C\C/C=C\C/C=C\CCC(=O)OC[C@@H](COC(=O)CCCCCCC/C=C\C/C=C\CCCCC)OC(=O)CCC/C=C\C/C=C\C/C=C\C/C=C\CCCCC` [TG 18:2_20:4_22:6] (ion (formula + adduct): [C63H98O6+NH4] 1+): the “TIMS collisional cross section” value (sample type: Liver) is reported as 330.4 Å².

As to `CC/C=C\C/C=C\C/C=C\CCCCCCCC(=O)OC[C@@H](COC(=O)CCCCCCC/C=C\CCCCCC)OC(=O)CCCCCCC/C=C\CCCCCCC` [TG 16:1_17:1_18:3] (ion (formula + adduct): [C54H94O6+NH4] 1+), under “sample type: HeLa”, the “TIMS collisional cross section” value is given as 314.8 Å².

As to `CCCCCCCCCCCCC(=O)OC[C@@H](COC(=O)CCCCCCCCCCC)OC(=O)CCCCCCCCCCCC` [TG 12:0_13:0_13:0] (ion (formula + adduct): [C41H78O6+NH4] 1+), the “TIMS collisional cross section” value (sample type: Liver) came to 282.7 Å².

For `CCCCCCCCCCCCCCCC(=O)OC[C@H](COP(=O)([O-])OCC[N+](C)(C)C)OC(=O)CCCCCCCCCCCCCCC` [PC 16:0_16:0] (ion (formula + adduct): [C40H80NO8P+H] 1+), the “TIMS collisional cross section” value is, setting by setting: (sample type: HeLa) 286.1 Å²; (sample type: Liver) 285.5 Å²; (sample type: plasma) 285.7 ± 0.42 Å².

On to `CCCCCCCCCCCCCCC(=O)O[C@H](COC(=O)CCCCCCCCCCCCC)COP(=O)([O-])OCC[N+](C)(C)C` [PC 14:0_15:0] (ion (formula + adduct): [C37H74NO8P+H] 1+), for which, where the note is “sample type: HeLa”, the “TIMS collisional cross section” value was 276.3 Å².

For the compound `CC/C=C\C/C=C\C/C=C\C/C=C\C/C=C\CCCC(=O)O[C@H](COC(=O)CCCCCCC/C=C\CCCCCC)COP(=O)([O-])OCC[N+](C)(C)C` [PC 16:1@_20:5] (ion (formula + adduct): [C44H76NO8P+H] 1+), under “sample type: Liver”, the “TIMS collisional cross section” value came out at 282.8 Å².

The record behind these values is the supplement of paper PMC6965134.
